System: patients of the REDUCE-IT and earlier EPA placebo-controlled trials
Type: in vivo, human
Conditions: R-I

## CC/C=C\C/C=C\C/C=C\C/C=C\C/C=C\CCCC(=O)OCC [icosapent ethyl, eicosapentaenoic acid ethyl ester]
  AR: ALP high (Day 120): 3.2%
  AR: ALP high (Day 360): 3.4%
  AR: ALP high (Day 720): 4.4%
  AR: ALP high (Day 1080): 4.4%
  AR: ALP high (Day 1440): 4.2%
  AR: ALP high (Day 1800): 4.3%
  AR: ALP shift: normal to high (Day 120): 1.5%
  AR: ALP shift: normal to high (Day 360): 1.8%
  AR: ALP shift: normal to high (Day 720): 3.0%
  AR: ALP shift: normal to high (Day 1080): 3.3%
  AR: ALP shift: normal to high (Day 1440): 3.2%
  AR: ALP shift: normal to high (Day 1800): 3.3%
  AR: ALP shift: normal to low (Day 120): 0.3%
  AR: ALP shift: normal to low (Day 360): 0.3%
  AR: ALP shift: normal to low (Day 720): 0.4%
  AR: ALP shift: normal to low (Day 1080): 0.4%
  AR: ALP shift: normal to low (Day 1440): 0.6%
  AR: Albumin high (Day 120): 1.0%
  AR: Albumin high (Day 360): 1.2%
  AR: Albumin high (Day 720): 2.1%
  AR: Albumin high (Day 1080): 1.9%
  AR: Albumin high (Day 1440): 1.8%
  AR: Albumin shift: normal to high (Day 120): 0.8%
  AR: Albumin shift: normal to high (Day 360): 0.9%
  AR: Albumin shift: normal to high (Day 720): 1.9%
  AR: Albumin shift: normal to high (Day 1080): 1.8%
  AR: Albumin shift: normal to high (Day 1440): 1.6%
  AR: Bilirubin >1x ULN to 2x ULN: 3.3%
  AR: Bilirubin >2x ULN to 3x ULN: 0.2%
  AR: Bilirubin high (Day 120): 1.9%
  AR: Bilirubin high (Day 360): 1.9%
  AR: Bilirubin high (Day 720): 2.0%
  AR: Bilirubin high (Day 1080): 2.4%
  AR: Bilirubin high (Day 1440): 2.3%
  AR: Bilirubin high (Day 1800): 2.6%
  AR: Bilirubin shift: normal to high (Day 120): 1.0%
  AR: Bilirubin shift: normal to high (Day 360): 0.9%
  AR: Bilirubin shift: normal to high (Day 720): 1.0%
  AR: Bilirubin shift: normal to high (Day 1080): 1.4%
  AR: Bilirubin shift: normal to high (Day 1440): 1.3%
  AR: Bilirubin shift: normal to high (Day 1800): 1.4%
  AR: Calcium high (Day 120): 1.0%
  AR: Calcium high (Day 360): 1.1%
  AR: Calcium high (Day 720): 1.2%
  AR: Calcium low (Day 120): 0.2%
  AR: Calcium low (Day 360): 0.2%
  AR: Calcium low (Day 720): 0.2%
  AR: DBP High (≥100 mmHg): 5.3%
  AR: DBP High and Rose ≥10 mmHg: 4.3%
  AR: DBP Low (≤50 mmHG): 1.0%
  AR: DBP Low and dropped ≥10 mmHg: 0.9%
  AR: DBP dropped ≥10 mmHG: 37.8%
  AR: DBP rose ≥10 mmHg: 36.5%
  AR: High platelets (Day 720): 1.5%
  AR: Low platelets (Day 360): 2.0%
  AR: Low platelets (Day 720): 3.1%
  AR: Low platelets (Day 1080): 3.2%
  AR: Platelet count: PCS Low <100 × 10^3/uL: 0.8%
  AR: SBP High (≥160 mmHg): 18.8%
  AR: SBP High and rose ≥20 mmHg: 11.9%
  AR: SBP Low (≤90 mmHg): 0.8%
  AR: SBP dropped ≥20 mmHg: 24.0%
  AR: SBP low and dropped ≥20 mmHg: 0.6%
  AR: SBP rose ≥20 mmHg: 29.6%
  AR: Urate high (Day 120): 13.4%
  AR: Urate high (Day 360): 13.0%
  AR: Urate high (Day 720): 12.4%
  AR: Urate high (Day 1080): 12.7%
  AR: Urate high (Day 1440): 12.7%
  AR: Urate high (Day 1800): 12.1%
  AR: Urate shift: normal to high (Day 120): 5.5%
  AR: Urate shift: normal to high (Day 360): 6.0%
  AR: Urate shift: normal to high (Day 720): 6.2%
  AR: Urate shift: normal to high (Day 1080): 7.1%
  AR: Urate shift: normal to high (Day 1440): 8.2%
  AR: Urate shift: normal to high (Day 1800): 8.2%
  AR: Urate shift: normal to low (Day 120): 0.1%
  AR: Urate shift: normal to low (Day 360): 0.2%
  AR: Urate shift: normal to low (Day 720): 0.2%
  AR: Urate shift: normal to low (Day 1080): 0.2%
  AR: Urate shift: normal to low (Day 1440): 0.3%
  AR: Uric acid PCS High >7.5 mg/dL (Women): 5.0%
  AR: Uric acid PCS High >8.0 mg/dL (Men): 15.3%
  AR: Uric acid PCS Low <1.9 mg/dL (Women): 0.0%
  AR: Uric acid PCS Low <2.5 mg/dL (Men): 0.4%
  ARR: ALP high (Day 120): −1.5%
  ARR: ALP high (Day 360): −2.0%
  ARR: ALP high (Day 720): −2.4%
  ARR: ALP high (Day 1080): −3.0%
  ARR: ALP high (Day 1440): −2.9%
  ARR: ALP high (Day 1800): −2.7%
  ARR: ALP shift: normal to high (Day 120): −1.3%
  ARR: ALP shift: normal to high (Day 360): −1.8%
  ARR: ALP shift: normal to high (Day 720): −2.6%
  ARR: ALP shift: normal to high (Day 1080): −3.0%
  ARR: ALP shift: normal to high (Day 1440): −2.7%
  ARR: ALP shift: normal to high (Day 1800): −2.6%
  ARR: ALP shift: normal to low (Day 120): 0.4%
  ARR: ALP shift: normal to low (Day 360): 0.3%
  ARR: ALP shift: normal to low (Day 720): 0.4%
  ARR: ALP shift: normal to low (Day 1080): 0.3%
  ARR: ALP shift: normal to low (Day 1440): 0.1%
  ARR: Albumin high (Day 120): 0.8%
  ARR: Albumin high (Day 360): 0.7%
  ARR: Albumin high (Day 720): 0.6%
  ARR: Albumin high (Day 1080): 0.7%
  ARR: Albumin high (Day 1440): 0.8%
  ARR: Albumin shift: normal to high (Day 120): 0.8%
  ARR: Albumin shift: normal to high (Day 720): 0.7%
  ARR: Albumin shift: normal to high (Day 1080): 0.4%
  ARR: Albumin shift: normal to high (Day 1440): 0.7%
  ARR: Bilirubin >1x ULN to 2x ULN: 3.5%
  ARR: Bilirubin >2x ULN to 3x ULN: 0.2%
  ARR: Bilirubin high (Day 120): 2.4%
  ARR: Bilirubin high (Day 360): 2.0%
  ARR: Bilirubin high (Day 720): 2.6%
  ARR: Bilirubin high (Day 1080): 2.0%
  ARR: Bilirubin high (Day 1440): 2.5%
  ARR: Bilirubin high (Day 1800): 2.3%
  ARR: Bilirubin shift: normal to high (Day 120): 1.3%
  ARR: Bilirubin shift: normal to high (Day 360): 1.3%
  ARR: Bilirubin shift: normal to high (Day 720): 1.3%
  ARR: Bilirubin shift: normal to high (Day 1080): 1.0%
  ARR: Bilirubin shift: normal to high (Day 1440): 1.8%
  ARR: Bilirubin shift: normal to high (Day 1800): 1.2%
  ARR: Calcium high (Day 120): −0.2%
  ARR: Calcium high (Day 360): −0.1%
  ARR: Calcium high (Day 720): −0.3%
  ARR: Calcium low (Day 120): 0.1%
  ARR: Calcium low (Day 360): 0.2%
  ARR: Calcium low (Day 720): 0.2%
  ARR: DBP High (≥100 mmHg): 0.6%
  ARR: DBP High and Rose ≥10 mmHg: 0.4%
  ARR: DBP Low (≤50 mmHG): 0.1%
  ARR: DBP Low and dropped ≥10 mmHg: 0.0%
  ARR: DBP dropped ≥10 mmHG: 3.2%
  ARR: DBP rose ≥10 mmHg: −0.6%
  ARR: High platelets (Day 720): 0.6%
  ARR: Low platelets (Day 360): −1.8%
  ARR: Low platelets (Day 720): −0.7%
  ARR: Low platelets (Day 1080): −1.2%

From patent US20210308089A1, “METHODS OF TREATING AND/OR PREVENTING VIRAL INFECTIONS AND/OR DISEASES CAUSED BY VIRUSES IN A SUBJECT IN NEED THEREOF” (priority 2020, published 2021)
